Converted amounts (≈) assume the structure as drawn. Structures can show the parent of a compound that is named as a salt.
Tests used:
[1] = system: cholangiocarcinoma; assay: cells; details: for IC50 (μg/mL) HuCCA-1: HuCCA-1 (Cholangiocarcinoma), mean ± standard error, triplicate
Protocol: (§1) Background control wells contained the same volume of the complete culture medium. […] Samples at various concentrations were added to the microplate, which was incubated for another 48 h. Cell viability was determined by staining with MTT assay [3(4,5-dimethylthiazol-2-yl)-2-5diphenyl tetrazolium bromide (Sigma-Aldrich, St. Louis, Mo., USA)]. The reagent was dissolved in phosphate buffered saline at 5 mg/mL and filtered to sterilize and remove the small amount of insoluble residue present in some batches of MTT. […] Subsequently, dimethyl sulfoxide (Merck, Germany) (100 μL) was added to dissolve the resulting formazan by using sonication. The plates were read on a microplate reader (Molecular Devices, CA, USA). OD was measured at testing wavelength of 550 nm and reference wavelength of 650 nm.

[2] = system: lung carcinoma; assay: cells; details: for IC50 (μg/mL) A549: A549 (Lung carcinoma), mean ± standard error, triplicate
Protocol: as §1

[3] = system: hepatocarcinoma; assay: cells; details: for IC50: Homo sapiens, HepG2, read-out: IC50 (μg/mL) HepG2; for IC50 (μg/mL) HepG2: HepG2 (Hepatocarcinoma), mean ± standard error, triplicate
Protocol: as §1

[4] = target: HIV-1 RT (Human immunodeficiency virus type 1 group M subtype B, UniProt P04585); assay: In vitro HIV-1 reverse transcriptase (HIV-1 RT) kit assay; assay type: biochemical; details: for inhibition at 1 µM: read-out: Inhibition rate (%) (HIV-RT kit assay) (1 μM)
Protocol: In Vitro HIV-1 Reverse Transcriptase (HIV-1 RT) Kit Assay
The HIV-RT inhibition assay was performed using an RT assay kit (Roche) according to the protocol of the kit. […] After 1 h of incubation at 37° C., the reaction mixture was transferred to a streptavidine-coated microtiter plate (MTP). Biotin-labeled dNTPs were incorporated in the template, because of the activity of RT bound to steptavidine. The unbound dNTPs were washed with wash buffer, and antidigoxigenin-peroxidase (anti-DIG-POD) was added to the MTP. The digoxigenin-labeled dNTPs incorporated in the template was bound to the anti-DIG-POD antibody. The unbound anti-DIG-POD was washed, and the peroxide substrate (ABST) was added to the MTP. A colored reaction product was produced during the cleavage of the substrate catalyses with a peroxide enzyme. […] The resulting color intensity was directly proportional to the actual RT activity. The percentage inhibitory activity of the RT inhibitors was calculated by comparing it to that of the sample without an inhibitor.

[5] = system: acute lymphoblastic leukemia (MOLT-3); assay: cells; details: for IC50 (μg/mL) MOLT-3: MOLT-3 (Acute lymphoblastic leukemia), mean ± standard error, triplicate
Protocol: as §1
XTT assay (3′-[1-[(phenylamino)-carbonyl]-3,4-tetrazolium]-bis(4-methoxy-6-nitro)benzene-sulfonic acid hydrate) for suspension cells was performed for acute lymphoblastic leukemia (MOLT-3).

[6] = system: BxPC-3 pancreatic cancer cells; details: read-out: in vitro EC50; cited from earlier work

Row | Structure (SMILES) | IC50 (μg/mL) HuCCA-1 [1] [µg/mL] | IC50 (μg/mL) A549 [2] [µg/mL] | IC50 (μg/mL) HepG2 [3] [µg/mL] | Inhibition rate (%) (HIV-RT kit assay) (1 μM) [4] | IC50 (μg/mL) MOLT-3 [5] [µg/mL] | also measured
1 | COc1cccc2c1C(=O)c1c(O)c3c(c(O)c1C2=O)C[C@@](O)(C(=O)CO)C[C@@H]3O[C@H]1C[C@H](N)[C@H](O)[C@H](C)O1 [doxorubicin hydrochloride, reference compound] |  |  |  |  |  | IC50 ([1]; Homo sapiens, HuCC-A1, read-out: IC50 (μg/mL) HuCCA-1): 0.89 ± 0.04 µg/mL; IC50 ([2]; Homo sapiens, A549, read-out: IC50 (μg/mL) A549): 0.19 ± 0.01 µg/mL; IC50 [3]: 0.23 ± 0.02 µg/mL
2 | Cc1cc(/C=C/C#N)cc(C)c1Nc1ccnc(Nc2ccc(C#N)cc2)n1 [TMC278, rilpivirine, reference compound] |  |  |  |  |  | inhibition at 1 µM [4]: 96.5%
3 | COc1cc([C@@H]2c3cc4c(cc3[C@@H](O[C@@H]3O[C@@H]5CO[C@@H](C)O[C@H]5[C@H](O)[C@H]3O)[C@H]3COC(=O)[C@H]23)OCO4)cc(OC)c1O [etoposide, reference compound] |  |  |  |  |  | IC50 [3]: 21.1 ± 0.7 µg/mL (≈ 35.9 µM); IC50 ([5]; Homo sapiens, MOLT-3, read-out: IC50 (μg/mL) MOLT-3): 0.048 ± 0.007 µg/mL (≈ 0.0816 µM)
4 | Cc1cc(C=O)cc(C)c1Oc1cc(Nc2ccc(C#N)cn2)nc2ccccc12 [Compound 4] | 49.5 ± 0.71 (≈ 125 µM) | 42.44 ± 0.48 (≈ 108 µM) | 36.53 ± 4.65 (≈ 92.6 µM) | 62.23 | 4.98 ± 0.43 (≈ 12.6 µM) | 
5 | Cc1cc(C#N)cc(C)c1Oc1cc(Nc2ccc(C#N)cc2)nc2ccccc12 [Compound 6] | ≥50 | ≥50 | ≥50 | 47.16 | 19.04 ± 16.02 (≈ 48.8 µM) | 
6 | Cc1ccnc2c1NC(=O)c1cccnc1N2C1CC1 [NVP, nevirapine, reference compound] |  |  |  |  |  | inhibition at 1 µM [4]: 55.6%
7 | N#Cc1ccc(Nc2cc(Oc3ccc(C#N)cc3)c3ccccc3n2)cc1 [Compound 7] | ≥50 | ≥50 | ≥50 | 39.71 | ≥50 | 
8 | N#Cc1ccc(Oc2cc(Nc3ccc(C#N)cn3)nc3ccccc23)cc1 [Compound 8] | 8.31 ± 0.33 (≈ 22.9 µM) | 5.09 ± 0.81 (≈ 14 µM) | 39.96 ± 0.26 (≈ 110 µM) | 27.61 | 5.12 ± 0.41 (≈ 14.1 µM) | 
9 | Cc1cc(C#N)cc(C)c1Oc1cc(Oc2c(C)cc(C#N)cc2C)c2ccccc2n1 [Compound 5] | 35.02 ± 4.65 (≈ 83.5 µM) | 23.28 ± 2.40 (≈ 55.5 µM) | 38.67 ± 2.87 (≈ 92.2 µM) | 40.31 | ≥50 | 
10 | O=C1Nc2ccc(Cl)cc2[C@@](C#CC2CC2)(C(F)(F)F)O1 [EFV, efavirenz] |  |  |  |  |  | EC50 [6]: 315 µM
11 | Cc1cc(C=O)cc(C)c1Oc1cc(Oc2c(C)cc(C=O)cc2C)c2ccccc2n1 [Compound 1] | 4.71 ± 0.30 (≈ 11.1 µM) | 16.37 ± 0.56 (≈ 38.5 µM) | 21.55 ± 5.23 (≈ 50.6 µM) | 42.08 | 2.62 ± 0.30 (≈ 6.16 µM) | 
